{
  "source": "patent US20250082658A1",
  "about": "“CELL PROLIFERATION RETARDANT, COSMETIC CONTAINING SAME, AND CELL PROLIFERATION RETARDATION METHOD” (NATIONAL UNIVERSITY CORPORATION KAGAWA UNIVERSITY, priority 2022, published 2025)",
  "key": {"[1]": {"system": "human pancreatic cancer cells PANC-1", "assay": "Metabolome analysis of central energy metabolism (C-SCOPE), PANC-1", "assay_type": "cell-based", "conditions": "50 mM, 12 hours", "method": "(§1) Cultured human pancreatic cancer cells PK-1 and PANC-1 (5.0×10^6) were cultured for 12 hours at 37° C. in a 5% CO2 atmosphere, either without addition of a sugar (control) or with addition of 50 mM D-glucose or D-allose. Samples of both cells were then prepared according to the protocol provided by Human Metabolome Technologies, Inc. (Tsuruoka City, Yamagata Prefecture. Japan) and measured for 116 substances (see Table 1) related to central energy metabolism (glycolysis, TCA cycle, amino acid metabolism and nucleic acid metabolism) using an Analysis Service provided by the same company (C-SCOPE (https://humanmetabolome.com/jpn/service/analysis/cscope/)), after which principal component analysis (PCA) (FIG. 15), heat map analysis (FIGS. 16 to 19) and pathway map analysis (FIG. 20) were carried out based on the measurement results."}, "[2]": {"system": "glycolysis in cultured human PK-1 pancreatic cancer cells", "assay": "Glycolysis evaluation with XFe24 extracellular flux analyzer (OCR, ECAR)", "assay_type": "cell-based", "text": "In the same manner as Example 2, an XFe24 extracellular flux analyzer (24-well) by Agilent Technologies (previously Seahorse Bioscience) was used to measure the oxygen consumption rate (OCR value) and extracellular acidification rate (ECAR value) of cultured human PK-1 pancreatic cancer cells and examine effects on the glycolysis."}, "PK-1 cells": {"system": "PK-1 cells", "assay": "WST-1 cell proliferation assay, PK-1", "assay_type": "cell-based, human", "conditions": "48 hours", "method": "PK-1 cells, as cultured human pancreatic cancer cells, were cultured for 48 hours with addition of D-allose or D-glucose at 25 or 50 mM concentration, and then analyzed by WST-1 assay to compare the effects on cell proliferation. PK-1 cells, as cultured human pancreatic cancer cells, were cultured for 48 hours with addition of allitol or D-mannitol at 50 mM concentration, and then analyzed by WST-1 assay to compare the effects on cell proliferation."}, "U251 cells [3]": {"system": "U251 cells", "assay": "WST-1 cell proliferation assay, U251", "assay_type": "cell-based, human", "conditions": "48 hours, 3, 5, 10, 30 or 50 mM", "method": "(§2) The cell proliferation ability in medium alone (control) and 48 hours after administration of D-glucose or D-allose was compared by WST-1 assay. U251 cells or U87 cells, as cultured human brain tumor cells, were cultured for 48 hours without administration of a sugar (control) or with addition of D-allose or D-glucose at different concentrations (3, 5, 10, 30 or 50 mM), and then analyzed by WST-1 assay to compare the effects on cell proliferation."}, "U251 cells [4]": {"system": "U251 cells", "assay": "Cell cycle evaluation by PI/RNase flow cytometry, U251", "assay_type": "cell-based, human", "conditions": "50 mM, 24 hours", "method": "(§3) The proportion of cells in each cell cycle in medium alone (control) and 48 hours after administration of D-glucose or D-allose was compared by flow cytometry analysis.\n(§4) Considering the possibility that growth inhibition of brain tumor cells may be caused by arrest of the cell cycle by D-allose, flow cytometry (FACS analysis) was carried out to identify changes in the cell cycle (see Yamaguchi F, Takata M. Kamitori K, et al. Rare sugar D-allose induces specific up-regulation of TXNIP and subsequent G1 cell cycle arrest in hepatocellular carcinoma cells by stabilization of p27kip1. Int J Oncol. 2008; 32(2):377-385). Specifically, the cell cycle was evaluated by Propidium Iodide (PI)/RNase Staining Solution (Cell Signaling Technology). The cells were cultured for 24 hours using DMEM, 50 mM D-glucose or 50 mM D-allose. The cultured cells were then recovered using trypsin and washed twice with PBS, and then fixed with 70% ethanol overnight at −20° C. After washing with PBS, the cells were stained in a dark room at room temperature for 30 minutes using 500 μl of PI reagent, washed with PBS, and then monitored for luminescence at 617 nm by flow cytometry. The data were analyzed using Kaluza analysis software (Ver. 1.2. Beckman Coulter), and the effects on the cell cycle were evaluated based on changes in the cell distribution rate at each phase of the cell cycle."}, "[5]": {"system": "cultured human PK-1 pancreatic cancer cells", "assay": "Cell cycle time course after nocodazole arrest and release, PK-1", "assay_type": "cell-based", "conditions": "50 mM, after removal of 50 nM nocodazole (12 hours)", "method": "Culturing was carried out for 12 hours in the presence of 50 nM nocodazole, and the cell cycle was arrested. The nocodazole was removed to restart the cell cycle, while administering medium alone (control) or D-glucose or D-allose (50 mM), after which samples were periodically taken and the cell cycle ratio was analyzed by flow cytometry.\nShown is the cell cycle ratio (G0/1 phase, S phase and G2/M phase) for cultured human pancreatic cancer cells PK-1 cultured with the schedule in FIG. 8.\nCulturing was carried out according to the schedule in FIG. 8, except for administering D-mannitol or allitol instead of D-glucose or D-allose.\nFirst, 50 nM of nocodazole was reacted with cultured human PK-1 pancreatic cancer cells for 12 hours to preemptively stop the cell cycle. The nocodazole was then removed from the culture solution to begin restart of the cell cycle, thus allowing periodic observation of the cell cycle from a reset state. The effect of D-allose on the speed of the cell cycle was investigated in detail under these experimental conditions.\nConsidering the possibility that the growth inhibition effect on cultured human PK-1 pancreatic cancer cells by allitol may be via arrest of the cell cycle, changes in the cell cycle were identified using flow cytometry (FACS analysis) by the same method as Example 2."}, "[6]": {"system": "PK-1 pancreatic cancer cells", "assay": "Cell cycle evaluation by PI/RNase flow cytometry, PK-1", "assay_type": "cell-based, human", "conditions": "50 mM", "method": "Considering the possibility that the growth inhibition effect on cultured human PK-1 pancreatic cancer cells by D-allose may be via arrest of the cell cycle, changes in the cell cycle were identified using flow cytometry (FACS analysis). Specifically, PK-1 cells were brought to a serum-starved state overnight and then fixed with 70% ethanol overnight at −20° C. For staining of the cellular DNA, the cells obtained as a centrifuged pellet were resuspended in 450 μL of propidium iodide (PI)/RNase solution (Cell Signaling Technology, Danvers, MA, USA), and cultured in a dark environment at room temperature for 30 minutes. Analysis was then carried out with a flow cytometer (Cytomics FC500 flow cytometry system, Beckman Coulter, Indianapolis, IN, USA) using 10,000 cells per sample."}, "[7]": {"system": "human pancreatic cancer cells PK-1", "assay": "Metabolome analysis of central energy metabolism (C-SCOPE), PK-1", "assay_type": "cell-based", "conditions": "50 mM, 12 hours", "method": "as §1"}, "U87 cells [8]": {"system": "U87 cells", "assay": "Cell cycle evaluation by PI/RNase flow cytometry, U87", "assay_type": "cell-based, human", "conditions": "50 mM, 24 hours", "method": "as §3, §4"}, "U87 cells [9]": {"system": "U87 cells", "assay": "Apoptosis by flow cytometry after annexin V staining, U87", "assay_type": "cell-based, human", "conditions": "doses that induce growth inhibition, 48 hours", "method": "(§5) The proportion of apoptotic cells in medium alone (control) and 48 hours after administration of D-glucose or D-allose was compared by flow cytometry analysis of the cells stained with annexin V. In order to elucidate the mechanism of the growth inhibition effect on brain tumor cells by D-allose, the cells were evaluated for apoptosis by flow cytometry after annexin V staining (FIG. 2)."}, "U251 cells [10]": {"system": "U251 cells", "assay": "Apoptosis by flow cytometry after annexin V staining, U251", "assay_type": "cell-based, human", "conditions": "doses that induce growth inhibition, 48 hours", "method": "as §5"}, "cancer cell lines": {"system": "cancer cell lines", "conditions": "reported (NPL 5); cited from earlier work"}, "brain tumor cells": {"system": "brain tumor cells", "assay": "CytoTell fluorogenic probe cell proliferation monitoring", "assay_type": "cell-based, human", "conditions": "50 mM; 96 hours after 24 hours probe uptake", "method": "Next, CytoTell™, a fluorogenic probe for flow cytometry which is recently being used as a cell proliferation monitoring reagent, was taken up into the brain tumor cells for 24 hours, and the cells were allowed to stand for 96 hours either without administration of a sugar (control) or with administration of 50 mM D-glucose and 50 mM D-allose, and attenuation of the fluorogenic probe intensity in the cells was evaluated (FIG. 4-1)."}, "[11]": {"system": "human pancreatic cancer cell line PK-1", "assay": "Cell cycle visualization with tFucci(CA)5, PK-1", "assay_type": "cell-based", "conditions": "50 mm, 0 to 84 hours", "text": "The human pancreatic cancer cell line PK-1 was transfected with tFucci(CA)5 (Plasmid #153521) (see Ando R., et al., Two new coral fluorescent proteins of distinct colors for sharp visualization of cell-cycle progression, bioRYiv, 2020, https://www.biorxiv.org/content/10.1101/2020.03.30.015156v2) purchased from Addgene (Massachusetts, USA), for cell cycle visualization. […] The cells were used to observe effects on the cell cycle of the human pancreatic cancer cell line PK-1 with and without addition of D-allose (50 mm)."}, "U87 cells [12]": {"system": "U87 cells", "assay": "WST-1 cell proliferation assay, U87", "assay_type": "cell-based, human", "conditions": "48 hours, 3, 5, 10, 30 or 50 mM", "method": "as §2"}, "cell cycle": {"system": "cell cycle", "conditions": "reported (PTL 1); cited from earlier work"}, "[13]": {"system": "PK-1 pancreatic cancer cells", "assay": "Apoptosis by flow cytometry with annexin V staining, PK-1", "assay_type": "cell-based, human", "conditions": "50 mM", "method": "Apoptosis was evaluated by flow cytometry using annexin V staining."}, "[14]": {"conditions": "known (PTL 2); cited from earlier work"}},
  "data": [
    {"smiles": "O=C[C@H](O)[C@H](O)[C@H](O)[C@H](O)CO", "note": "[D-allose]", "values": [
      {"measurement": "fructose 1,6-diphosphate", "setting": "[1]", "value": "reducing"},
      {"measurement": "fructose 1-phosphate in the polyol pathway", "setting": "[1]", "value": "increased"},
      {"measurement": "fructose 6-phosphate in the glycolysis", "setting": "[1]", "value": "increased"},
      {"measurement": "glucose 6-phosphate in the glycolysis", "setting": "[1]", "value": "increased"},
      {"measurement": "intracellular metabolic profile (PCA, heat map)", "setting": "[1]", "value": "significantly altered intracellular metabolic profile"},
      {"measurement": "glycolysis in the cells", "setting": "[2]; 50 mM for 16 hours", "value": "notably inhibited the glycolysis"},
      {"measurement": "glycolytic capacity, or its reserve capacity", "setting": "[2]; 50 mM for 16 hours", "value": "lowered"},
      {"measurement": "cell proliferation (WST-1)", "setting": "PK-1 cells; 25 or 50 mM", "value": "exhibited a cell growth inhibitory effect"},
      {"measurement": "cell proliferation ability (WST-1)", "setting": "U251 cells [3]", "value": "dose-dependent cell growth inhibitory effect"},
      {"measurement": "arrest of the cell cycle", "setting": "U251 cells [4]", "value": "did not induce arrest of the cell cycle"},
      {"measurement": "transition from the G0/1 phase to the S phase", "setting": "[5]", "value": "significant delaying of transition from the G0/I phase to the S phase"},
      {"measurement": "transition to the G2/M phase", "setting": "[5]", "value": "This delaying effect was also exhibited for transition to the G2/M phase"},
      {"measurement": "G0/G1 phase ratio", "setting": "[6]", "value": "slight increase"},
      {"measurement": "fructose 1,6-diphosphate", "setting": "[7]", "value": "reducing"},
      {"measurement": "fructose 1-phosphate in the polyol pathway", "setting": "[7]", "value": "increased"},
      {"measurement": "fructose 6-phosphate in the glycolysis", "setting": "[7]", "value": "increased"},
      {"measurement": "glucose 6-phosphate in the glycolysis", "setting": "[7]", "value": "increased"},
      {"measurement": "intracellular metabolic profile (PCA, heat map)", "setting": "[7]", "value": "significantly altered intracellular metabolic profile"},
      {"measurement": "arrest of the cell cycle", "setting": "U87 cells [8]", "value": "did not induce arrest of the cell cycle"},
      {"measurement": "induction of apoptosis (annexin V)", "setting": "U87 cells [9]", "value": "apoptosis is not induced"},
      {"measurement": "induction of apoptosis (annexin V)", "setting": "U251 cells [10]", "value": "apoptosis is not induced"},
      {"measurement": "proliferation of cancer cell lines", "setting": "cancer cell lines", "value": "can inhibit proliferation of cancer cell lines"},
      {"measurement": "attenuation of fluorogenic probe intensity in the cells", "setting": "brain tumor cells", "value": "notably inhibited attenuation of fluorescent probe intensity"},
      {"measurement": "effect on the cell cycle (tFucci(CA)5 fluorescence microscopy)", "setting": "[11]", "value": "delay the cell cycle, primarily at transition from the G1 phase to the S phase"},
      {"measurement": "cell proliferation ability (WST-1)", "setting": "U87 cells [12]", "value": "dose-dependent cell growth inhibitory effect"},
      {"measurement": "G2 phase of the cell cycle", "setting": "cell cycle", "value": "delaying the “G2 phase” of the cell cycle"},
      {"measurement": "apoptosis (annexin V)", "setting": "[13]", "value": "apoptosis was not produced"}
    ]},
    {"smiles": "OC[C@@H](O)[C@@H](O)[C@@H](O)[C@@H](O)CO", "note": "[allitol, (2S,3S,4R,5R)-hexane-1,2,3,4,5,6-hexaol]", "values": [
      {"measurement": "glycolysis in the cells", "setting": "[2]; 50 mM for 18 hours", "value": "inhibited the glycolysis"},
      {"measurement": "glycolytic capacity, or its reserve capacity", "setting": "[2]; 50 mM for 18 hours", "value": "significantly lowered"},
      {"measurement": "fat accumulation", "setting": "[14]", "value": "fat accumulation-inhibiting effect"},
      {"measurement": "cell proliferation (WST-1)", "setting": "PK-1 cells; 50 mM", "value": "exhibited a cell proliferation inhibiting effect"},
      {"measurement": "transition from the G0/1 phase to the S phase", "setting": "[5]", "value": "significantly delayed the transition from the G0/1 phase to the S phase"},
      {"measurement": "transition to the G2/M phase", "setting": "[5]", "value": "This delaying effect was also exhibited for transition to the G2/M phase"},
      {"measurement": "apoptosis (annexin V)", "setting": "[13]", "value": "no apoptosis had occurred"}
    ]}
  ]
}
